Patent US8669208B2, “Herbicidal benzoxazinones” (BASF SE, priority 2010, dated 2014)

Tests used:
Assay type in all cases: in vivo
[1] = tested on: Amaranthus retroflexus; assay: greenhouse herbicidal test, pre-emergence treatment; conditions: pre-emergence method, scale from 0 to 100, read-out: herbicidal activity against Amaranthus retroflexus; for pest or weed control at 50 g/ha: application rate 50 g/ha; for pest or weed control at 25 g/ha: application rate 25 g/ha
Text: (§1) The seeds of the test plants were sown separately for each species. For the pre-emergence treatment, the active ingredients, which had been suspended or emulsified in water, were applied directly after sowing by means of finely distributing nozzles. The containers were irrigated gently to promote germination and growth and subsequently covered with transparent plastic hoods until the plants had rooted. This cover caused uniform germination of the test plants, unless this has been impaired by the active ingredients. Depending on the species, the plants were kept at 10-25° C. or 20-35° C. The test period extended over 2 to 4 weeks. During this time, the plants were tended, and their response to the individual treatments was evaluated. Evaluation was carried out using a scale from 0 to 100. 100 means no emergence of the plants, or complete destruction of at least the aerial moieties, and 0 means no damage, or normal course of growth. A good herbicidal activity is given at values of at least 70 and a very good herbicidal activity is given at values of at least 85. The plants used in the greenhouse experiments belonged to the following species: [table]

[2] = tested on: Chenopodium album; assay: as above; conditions: pre-emergence method, application rate 50 g/ha, scale from 0 to 100, read-out: herbicidal activity against Chenopodium album
Text: as §1

[3] = tested on: Abutilon theophrasti; assay: as above; conditions: pre-emergence method, application rate 50 g/ha; scale from 0 to 100
Text: as §1

[4] = tested on: Kochia scoparia; assay: greenhouse herbicidal test, post-emergence treatment; conditions: post-emergence method, application rate 12.5 g/ha; scale from 0 to 100
Text: (§2) The seeds of the test plants were sown separately for each species. For the post-emergence treatment, the test plants were first grown to a height of 3 to 15 cm, depending on the plant habit, and only then treated with the active ingredients which had been suspended or emulsified in water. For this purpose, the test plants were either sown directly and grown in the same containers, or they were first grown separately as seedlings and transplanted into the test containers a few days prior to treatment. Depending on the species, the plants were kept at 10-25° C. or 20-35° C. The test period extended over 2 to 4 weeks. During this time, the plants were tended, and their response to the individual treatments was evaluated. Evaluation was carried out using a scale from 0 to 100. 100 means no emergence of the plants, or complete destruction of at least the aerial moieties, and 0 means no damage, or normal course of growth. A good herbicidal activity is given at values of at least 70 and a very good herbicidal activity is given at values of at least 85. The plants used in the greenhouse experiments belonged to the following species: [table]

[5] = tested on: Malva neglecta; assay: as above; conditions: post-emergence method, application rate 12.5 g/ha; scale from 0 to 100
Text: as §2

[6] = tested on: Amaranthus palmeri; assay: as above; conditions: post-emergence method, application rate 12.5 g/ha; scale from 0 to 100
Text: as §2

[7] = tested on: Viola arvensis; assay: greenhouse herbicidal test, pre-emergence treatment; conditions: pre-emergence method, application rate 25 g/ha; scale from 0 to 100
Text: as §1

[8] = tested on: Abutilon theophrasti; assay: greenhouse herbicidal test, post-emergence treatment; conditions: post-emergence method, application rate 1000 g/ha; scale from 0 to 100
Text: as §2

Compound	pest or weed control at 50 g/ha [1]	pest or weed control at 50 g/ha [2]	herbicidal activity against Abutilon theophrasti [3]	also measured
C#CCN1C(=O)C(F)(F)Oc2cc(F)c(N3C(=O)c4ccc(F)cc4C3=O)cc21 [Example 15]	≥ 85%	≥ 85%	–	–
C#CCN1C(=O)C(F)(F)Oc2cc(F)c(-n3nc(C)n(C(F)F)c3=O)cc21 [Example 11]	≥ 85%	≥ 85%	very good herbicidal activity (a very good herbicidal activity is given at values of at least 85)	–
C#CCN1C(=O)C(F)(F)Oc2cc(F)c(-n3nc(C(C)(C)C)oc3=O)cc21 [Ig48, 6-(5-tert-Butyl-2-oxo-[1,3,4]oxadiazol-3-yl)-2,2,7-trifluoro-4-prop-2-ynyl-4H-benzo[1,4]oxazin-3-one]	–	–	–	herbicidal activity against Kochia scoparia [4]: good herbicidal activity (A good herbicidal activity is given at values of at least 70); herbicidal activity against Malva neglecta [5]: very good herbicidal activity (a very good herbicidal activity is given at values of at least 85); herbicidal activity against Amaranthus palmeri [6]: very good herbicidal activity (a very good herbicidal activity is given at values of at least 85); pest or weed control at 25 g/ha [1]: ≥ 85%; herbicidal activity against Viola arvensis [7]: very good herbicidal activity (a very good herbicidal activity is given at values of at least 85)
C#CCN1C(=O)C(F)(F)Oc2cc(F)c(/N=c3\sc(=O)n4n3CCCC4)cc21 [If48]	≥ 85%	≥ 85%	very good herbicidal activity (a very good herbicidal activity is given at values of at least 85)	–
C#CCN1C(=O)C(F)(F)Oc2cc(F)c(N3C(=O)C(=O)N(CCC)C3=S)cc21 [Ii48, 1-Propyl-2-thioxo-3-(2,2,7-trifluoro-3-oxo-4-prop-2-ynyl-3,4-dihydro-2H-benzo[1,4]oxazin-6-yl)-imidazolidine-4,5-dione]	–	–	–	herbicidal activity against Kochia scoparia [4]: very good herbicidal activity (a very good herbicidal activity is given at values of at least 85); herbicidal activity against Malva neglecta [5]: very good herbicidal activity (a very good herbicidal activity is given at values of at least 85)
C#CCN1C(=O)C(F)(F)Oc2cc(F)c(N3C(=O)CC(=C(C)C)C3=O)cc21 [Example 17]	≥ 85%	≥ 85%	–	–
C#CCN1C(=O)C(F)(F)Oc2cc(F)c(N3C(=O)OC(=C(C)C)C3=O)cc21 [Example 10]	≥ 85%	≥ 85%	very good herbicidal activity (a very good herbicidal activity is given at values of at least 85)	–
C#CCN1C(=O)C(F)(F)Oc2cc(F)c(N3C(=O)CC(C)CC3=O)cc21 [Example 14]	≥ 85%	≥ 85%	very good herbicidal activity (a very good herbicidal activity is given at values of at least 85)	–
C#CCN1C(=O)C(F)(F)Oc2cc(F)c(-n3nc(C)nc3OC(F)F)cc21 [Example 12]	≥ 85%	≥ 85%	very good herbicidal activity (a very good herbicidal activity is given at values of at least 85)	–
C#CCN1C(=O)C(F)(F)Oc2cc(F)c(/N=c3\scc(C(F)(F)F)n3C)cc21 [Example 16]	≥ 85%	≥ 85%	–	–
C#CCN1C(=O)C(F)(F)Oc2cc(F)c(-n3ncc(C(F)(F)F)c(C)c3=O)cc21 [Ia48, 2,2,7-Trifluoro-6-(5-methyl-6-oxo-4-trifluoromethyl-6H-pyridazin-1-yl)-4-prop-2-ynyl-4H-benzo[1,4]oxazin-3-one]	–	–	–	herbicidal activity against Kochia scoparia [4]: very good herbicidal activity (a very good herbicidal activity is given at values of at least 85); herbicidal activity against Malva neglecta [5]: very good herbicidal activity (a very good herbicidal activity is given at values of at least 85); herbicidal activity against Amaranthus palmeri [6]: very good herbicidal activity (a very good herbicidal activity is given at values of at least 85); pest or weed control at 25 g/ha [1]: ≥ 85%; herbicidal activity against Viola arvensis [7]: very good herbicidal activity (a very good herbicidal activity is given at values of at least 85)
C#CCN1C(=O)C(F)(F)Oc2cc(F)c(-n3c(=O)c4ccccc4n(C)c3=O)cc21 [Ik48, 1-Methyl-3-(2,2,7-trifluoro-3-oxo-4-prop-2-ynyl-3,4-dihydro-2H-benzo[1,4]oxazin-6-yl)-1H-quinazoline-2,4-dione]	–	–	–	herbicidal activity against Kochia scoparia [4]: very good herbicidal activity (a very good herbicidal activity is given at values of at least 85); herbicidal activity against Malva neglecta [5]: very good herbicidal activity (a very good herbicidal activity is given at values of at least 85); herbicidal activity against Amaranthus palmeri [6]: very good herbicidal activity (a very good herbicidal activity is given at values of at least 85); pest or weed control at 25 g/ha [1]: ≥ 85%; herbicidal activity against Viola arvensis [7]: good herbicidal activity (A good herbicidal activity is given at values of at least 70)
C#CCN1C(=O)C(F)(F)Oc2cc(F)c(-n3nc4n(c3=O)CCCC4)cc21 [Example 9]	≥ 85%	≥ 85%	very good herbicidal activity (a very good herbicidal activity is given at values of at least 85)	–
Cn1nc(-c2cc3c(cc2F)OC(F)(F)C(=O)N3)cc1C(F)(F)F [Example 19]	–	–	–	herbicidal activity against Abutilon theophrasti [8]: very good herbicidal activity (a very good herbicidal activity is given at values of at least 85)
C#CCN1C(=O)C(F)(F)Oc2cc(F)c(N3C(=O)[C@H]4C[C@H](F)CN4C3=O)cc21 [Example 2, (6S,7aR)-6-Fluoro-2-(2,2,7-trifluoro-3-oxo-4-prop-2-ynyl-3,4-dihydro-2H-benzo[1,4]-oxazin-6-yl)-tetrahydro-pyrrolo[1,2-c]imidazole-1,3-dione]	≥ 85%	≥ 85%	very good herbicidal activity (a very good herbicidal activity is given at values of at least 85)	–
C#CCN1C(=O)C(F)(F)Oc2cc(F)c(/N=c3\snc4n3CC(C)(C)C4)cc21 [Example 13]	≥ 85%	≥ 85%	–	–
